The text below walks through data of patent US6365217B2, “N-[N-(3,3-dimethylbutyl)-L-α-aspartyl]-L-phenylalanine 1-methyl ester agglomerate” (The Nutra Sweet Company, priority 1999, dated 2002).

Structures are written as SMILES. Residues, ends and D or L forms follow the SMILES beside them.

For data set [1] the following is noted: relative to sucrose; cited from earlier work.
Data set [2] is described as follows: Solubility in water, ethanol and organic solvents. The data set is classed as physicochemical.
The conditions of data set [3]: under some pH conditions, compared with aspartame; cited from earlier work.

In the case of `COC(=O)[C@H](Cc1ccccc1)NC(=O)[C@H](CC(=O)O)NCCC(C)(C)C` [N-[N-(3,3-dimethylbutyl)-L-α-aspartyl]-L-phenylalanine 1-methyl ester], the sweetening potency entry in data set [1] is “about 8,000 times”. Further, the “solubility in organic solvents” value in data set [2] (compared with aspartame) was “much higher solubility in organic solvents than aspartame”. Also, the solubility in ethanol entry in data set [2] is “greater than 100 g/100 ml”. For the same molecule, in data set [2] (water), the solubility in water entry is given as “about 1%”. Besides, the stability result in data set [3] is “higher stability than aspartame”.
As for `COC(=O)[C@H](Cc1ccccc1)NC(=O)[C@@H](N)CC(=O)O` [aspartame, reference compound] (H-Asp-Phe-OMe), the solubility in ethanol entry in data set [2] is “less than 0.1%”.
